Experimental findings from patent US10835470B2, “Cosmetics composition containing ginsenoside as active ingredient” (AMOREPACIFIC CORPORATION, priority 2015, dated 2020) are described below.

One test deals with B16/F10 melanoma cells. Nature of the test: Inhibition of melanin production in B16/F10 melanoma cells. Type of test: cell-based, mouse. Conditions: 72 hours, concentration not given. An excerpt:
The B16/F10 melanoma used in this test example is a cell line derived from a mouse and is a cancer cell caused by malignant alteration of a cell secreting a black pigment called melanin. The extent to which and melanin production was decreased by treating the test substance during artificial cultivation of this cell was compared and evaluated. The B16/F10 melanoma used in this test example was purchased from the Korean Cell Line Bank (KCLB No: 8008) and used. Measurement of melanin biosynthesis inhibitory effect of B16/F10 melanoma was carried out as follows. B16/F10 melanoma was dispensed in a 6-well plate (5×10^5/well) and cultured in DMEM (Dulbecco's Modified Eagle's Medium) containing 10% FBS (fetal bovine serum) for about 24 hours at 37° C. in a 5% CO2 incubator (MCO-20 AIC, Sanyo). The test substance was added to a new DMEM medium not containing FBS and allowed to stand for 72 hours. […] Absorbance was measured at 405 nm using an ELISA reader (DIbiotech, Korea). […] In comparison with the melanin content in the control group, the degree of inhibition of melanin production of each test substance was measured. […] Melanin production inhibition rate was calculated according to Mathematical Equation 2 below, and the results are shown in Table 4. Melanin production inhibition rate (%)=100−[{(Absorbance of test substance)/(Absorbance of control group)}×100] […]

The subject of test [1] is tyrosinase enzyme extracted from mushrooms. Nature of the test: Tyrosinase inhibitory effect, absorbance at 475 nm. Type of test: biochemical. Conditions: mushroom tyrosinase, tyrosine substrate, 37° C., concentration of test substance not given. The method, then:
The tyrosinase enzyme was extracted from mushrooms and obtained from Sigma (SIGMA). First, tyrosine as a substrate was dissolved in distilled water to prepare 0.3 mg/ml of a solution. The solution was placed by 1.0 ml in a test tube, and then 1.0 ml of potassium phosphate buffer solution (concentration 0.1 mol, PH 6.8) and 0.7 ml of distilled water were added to prepare a reaction solution.
0.2 ml of the test substance was placed in the reaction solution, and then the mixture was allowed to react in a thermostatic chamber at 37° C. for 10 minutes. At this time, as a negative control group (no addition), that obtained by adding 0.2 ml of only solvent in place of each test substance was prepared. As a positive control group, ascorbic acid was used. 2500 unit/ml of tyrosinase solution was added by 0.1 ml to the reaction solution, and the mixture was reacted again in a thermostatic chamber at 37° C. for 10 minutes. The test tube containing this reaction solution was placed in ice water and quenched to stop the reaction. Absorbance at a wavelength of 475 nm was measured with a photoelectron spectrometer. Each tyrosinase inhibitory effect was calculated by Mathematical Equation 1 below. The tests were conducted on ginsenoside Rd and compound O, respectively. Tyrosinase inhibition rate (%)=100−[{(Reaction absorbance of test substance)/(Reaction absorbance of negative control group)}×100] […]

In another test the test system is Candida albicans. The test can be described thus: Antibacterial activity, MIC by two-fold dilution. Type of test: cell-based. Conditions: 25° C., 48 hours. Here is the method:
(§1) Antibacterial experiments were conducted to evaluate the antibacterial activity of ginsenoside Rd and Compound O. Specific experimental methods are as follows. The strains of Staphylococcus aureus, Escherichia coli and Pseudomonas aeruginosa used in the experiment were cultured in Trypticase Soy Broth, and the strains of Candida albicans, Aspergillus niger were cultured in Sabouraud Dextrose Broth medium. A diluted solution in which the culture solution is diluted 1/100 (Candida albicans strain 1/10) in each culture medium was used as a test strain solution. A spore suspension of Aspergillus niger (2×10^8 cfu/ml) was used as a test strain solution. A solution prepared by adding 0.15 ml of the test strain solution to 15 ml of each medium and thoroughly mixing the same was used as a diluted solution. 96 Deep well plate was placed by 16 μl ginsenoside Rd 10 ppm to 1 row and placed by 184 μl a diluted solution. The diluted solution was placed by 100 μl in the rest of the wells. The mixed solution of 1 row was thoroughly mixed and 100 μl was taken and placed in 2 row and thoroughly mixed. 100 μl was taken again and placed in 3 row. A two-fold dilution was carried out in this manner. Staphylococcus aureus, Escherichia coli and Pseudomonas aeruginosa were cultured in a thermostatic chamber at 32° C., and Candida albicans and Aspergillus niger were cultured in a thermostatic chamber at 25° C. After 48 hours, the growth of strains was checked by the degree of suspension and microscope, and the Minimum Inhibitory Concentration (MIC) value was determined. The ginsenoside Rd was replaced with Compound O, and the test was carried out in the same process.

The test system of another test is Pseudomonas aeruginosa. Nature of the test: Antibacterial activity, MIC by two-fold dilution. Conditions: 32° C., 48 hours. Type of test: cell-based. Here is the method:
as §1

A further test concerns Staphylococcus aureus. The test can be described thus: Antibacterial activity, MIC by two-fold dilution. Type of test: cell-based. Conditions: 32° C., 48 hours. The method, then:
as §1

Another test concerns Aspergillus niger. The test can be described thus: Antibacterial activity, MIC by two-fold dilution. The format is cell-based. Conditions: 25° C., 48 hours. The method, then:
as §1

A further test concerns Escherichia coli. The test can be described thus: Antibacterial activity, MIC by two-fold dilution. Type of test: cell-based. Conditions: 32° C., 48 hours. Here is the method: as §1
In test [2] the test system is keratinocytes (cell line: HaCaT). Nature of the test: Inhibition of UVB-induced reactive oxygen species (ROS) generation, DCF-DA fluorescence. The format is cell-based. Here is the method: 5×10^4 keratinocytes (cell line: HaCaT; obtained from: ATCC) was placed in each well of a 24-well plate and allowed to adhere for 24 hours. After 16 hours, ginsenoside Rd was treated with 1%. […] After 2 hours, the culture solution was removed, and 100 μl of phosphate buffer saline (PBS) was added to each well. The keratinocytes were irradiated with ultraviolet rays of 30 mJ/cm^2 using an ultraviolet B (UVB) lamp (Model: […], UV B 15 W, Sankyo Denki, Japan), and then PBS was taken out and 200 μl of keratinocyte culture solution was added to each well. Herein, ginsenoside Rd was again treated and the amount of reactive oxygen species increased by ultraviolet stimulation was determined for each fixed period of time. The amount of ROS was determined by referring to Tan's method for measuring the fluorescence of DCF-DA (dichlorofluorescin diacetate) oxidized by ROS (Tan et al., 1998, J. Cell Biol. Vol. 141, pp 1423-1432). The ginsenoside Rd was replaced with Compound O, and the test was carried out in the same process.

In the case of `O=c1cc(CO)occ1O` [Kojic acid, reference compound], the “Melanin production inhibition rate (%)” value in the test on B16/F10 melanoma cells is given as 49%.

For the compound `CC(C)=CCC[C@](C)(O[C@@H]1O[C@H](CO)[C@@H](O)[C@H](O)[C@H]1O)[C@H]1CC[C@]2(C)[C@@H]1[C@H](O)C[C@@H]1[C@@]3(C)CC[C@H](O[C@@H]4O[C@H](CO)[C@@H](O)[C@H](O)[C@H]4O[C@@H]4O[C@H](CO)[C@@H](O)[C@H](O)[C@H]4O)C(C)(C)[C@@H]3CC[C@]12C` [Ginsenoside Rd], the “Tyrosinase inhibition rate (%)” value in test [1] is 68%. In addition, the “Melanin production inhibition rate (%)” value in the test with B16/F10 melanoma cells was determined as 67%. The “Minimum Inhibitory Concentration (MIC)” value is above 4% in the test on Candida albicans; 0.25% with Pseudomonas aeruginosa; 0.07% with Staphylococcus aureus; above 3% with Aspergillus niger; 0.191% in the test on Escherichia coli. Besides, the “Amount of ROS, ratio to vehicle control” value was 100 in test [2] (0 hr after irradiation of UVB 30 mJ/cm^2, test substance treated with 1%); 251 in test [2] (2 hr after irradiation of UVB 30 mJ/cm^2, test substance treated with 1%); 286 in test [2] (3 hr after irradiation of UVB 30 mJ/cm^2, test substance treated with 1%).

Turning to `O=C1O[C@H]([C@@H](O)CO)C(O)=C1O` [Ascorbic acid, reference compound], in test [1], the “Tyrosinase inhibition rate (%)” value is 56%.
